Data on two compounds can be found in patent US9371353B2, “Oligonucleotide with protected base” (Ajinomoto Co., Inc., priority 2012, dated 2016).

The series can be described thus: Solubility test of nucleoside with protected 3′-hydroxyl group. In kind it is physicochemical. The method, then:
The solubility (=solute/(solvent+solute)×100) (mass %) at 20° C., shown in the following Table 2, of the compound representing the present invention, thymidine wherein the 5′-hydroxyl group is protected by dimethoxytrityl group, and the 3′-hydroxyl group is protected by the branched chain-containing aromatic protecting group (Example 2), and thymidine wherein the 5′-hydroxyl group is protected by dimethoxytrityl group, and the 3′-hydroxyl group is protected by the corresponding group containing the straight chain structure (Comparative Example 2) as a comparison target thereof was measured.
[Solubility Measurement Method]
• 1) A solute (100 parts by mass) was added to a solvent (100 parts by mass) to saturation at 20° C. • 2) When the solute remained by visual observation, the supernatant was quantitatively analyzed under the following HPLC conditions, and the concentration was determined and taken as the solubility (=solute/(solvent+solute)×100)(mass %). • 3) When the solute was absent by visual observation, the solubility was >50 mass %. • [HPLC Analysis Conditions] • use instrument: Hitachi high performance liquid chromatography LaChrom Elite L-2000 series • column: YMC-PACK 5 μm 150×4.6 mm • column temperature: 40° C. • eluent: THF/CH3CN/H2O • flow rate: 1.0 ml/min

Setting [1] is: heptane/toluene/acetonitrile = 1/1/1, 20° C.

Structures are written as SMILES.

`CCCCCCCCCCCCCCCCCCOc1cc(CNC(=O)CCC(=O)OC2CC(n3cc(C)c(=O)[nH]c3=O)OC2COC(c2ccccc2)(c2ccc(OC)cc2)c2ccc(OC)cc2)cc(OCCCCCCCCCCCCCCCCCC)c1OCCCCCCCCCCCCCCCCCC` (stereo not drawn) [Comparative Example 2, 5′-O-(4,4′-dimethoxytrityl)-2′-deoxythymidin-3′-yl-N-(3,4,5-tris(octadecyloxy)benzyl)succinamate]: the “solubility (=solute/(solvent+solute)×100)” value is, setting by setting: (heptane, 20° C.) 0% by mass; (heptane/toluene = 1/1, 20° C.) 22.3% by mass; under setting [1], 13.7% by mass.
For `COc1ccc(C(OCC2OC(n3cc(C)c(=O)[nH]c3=O)C[C@H]2OC(=O)CCC(=O)NCc2cc(OCCC(C)CCCC(C)CCCC(C)CCCC(C)C)c(OCCC(C)CCCC(C)CCCC(C)CCCC(C)C)c(OCCC(C)CCCC(C)CCCC(C)CCCC(C)C)c2)(c2ccccc2)c2ccc(OC)cc2)cc1` (stereo partly drawn) [Example 2, 5′-O-(4,4′-dimethoxytrityl)-2′-deoxythymidin-3′-yl-N-[3,4,5-tris(3,7,11,15-tetramethyl-1-hexadecanyloxy)benzyl]succinamate] the same measures were greater than 50% by mass, greater than 50% by mass and greater than 50% by mass.
